Test results reported in publication PMC10663516 (Scientific Reports, 2023).
Read-outs that look alike come from different tables or passages of the source.

Experiments:
[1] = test system: DLBCL PDX models; assay: 21 DLBCL PDX models, overall tumor response; type: in vivo, mouse
Procedure: (§1) The research use of patient material in PDX models at Crown Bioscience, XenoSTART and EPO-GmbH was approved by the local Institutional Ethical Review Boards and the patients provided written informed consent. Molecular analysis was performed on samples from each model using the EdgeSeq DLBCL Cell of Origin Assay (HTG Molecular Diagnostics, Tucson, AZ, USA) to confirm ABC-GCB DLBCL subtype.
Stock mice inoculated with human DLBCL cancer tissues were euthanized by progressive hypoxemia with CO2 and tumors were harvested. […]
(§2) When the average tumor volume was within a pre-determined range (100–300 mm^3), mice were assigned to treatment groups to balance the mean starting tumor volumes (n = 5 for all models except LY13005, which was n = 3). […] Tumor volumes were recorded 2–3 times per week. Mean %∆T/∆C was calculated at the end of treatment as described above for MCL models.
Tumor volume was used as the measure of efficacy for statistical analyses of in vivo xenograft studies. Tumor volume data from individual studies were log-transformed and statistically analyzed using repeated measures analysis of covariance (RM-ANCOVA) to determine significant treatment effects, followed by post hoc Tukey’s test for multiple pairwise comparisons (all α = 0.05) using R software. Day 0 data were used only as covariates in the analyses because tumor measurements on that day were recorded before the first treatments were administered. […]

[2] = test system: DLBCL; conditions: cited from earlier work
[3] = test system: LY11212/GCB; assay: DLBCL PDX model; type: in vivo, mouse; conditions: 13 days, QD PO, TL-895 and ibrutinib 25 mg/kg, acalabrutinib 30 mg/kg
Procedure: (§3) All three compounds were formulated in a solution of 20% kleptose (hydroxypropyl β-cyclodextrin) in 50 mM citrate and administered QD PO during the treatment periods given for each model.
(§4) For mean values > 0: %ΔT/ΔC=endtumorvolumetreatment-starttumorvolumetreatment/endtumorvolumecontrol-starttumorvolumecontrol×100
(§5) For mean values ≤ 0 (i.e. regression): %ΔT/ΔC=endtumorvolumetreatment-starttumorvolumetreatment/starttumorvolumecontrol×100
as §1
(§6) Stock mice inoculated with human DLBCL cancer tissues were euthanized by progressive hypoxemia with CO2 and tumors were harvested. Tumor fragments were used at three different contract research organizations for xenotransplantation into different mouse strains for the following models: (1) 6-week-old female nude (NMRI:nu/nu) or CB17-SCID mice (Javier Labs, France): Ly12638, Ly11212, and Ly13005 (Experimental Pharmacology and Oncology Berlin-Buch GmbH [EPO-GmbH], Germany); (2) 6–8-week-old female BALB/c nude or NOD SCID mice (Beijing HFK Bioscience Co., Ltd. Beijing, China): LY0257, LY2214, LY3604, LY2298, LY2264, LY2318, and LY2345 (Crown Bioscience Inc, Taicang, China); and (3) 6–12-week-old female CB-17 SCID mice (CB17/Icr-Prkdc^scid/IcrIcoCrl Charles River Laboratories, Wilmington, MA, USA): ST118B, ST949B, ST359, ST949, ST2761B, ST2963, ST1361, ST2078, ST1735B, ST2902, and ST3497 (XenoSTART, San Antonio, TX, USA).
as §2
(§7) Tumor volume was used as the measure of efficacy for statistical analyses of in vivo xenograft studies. Tumor volume data from individual studies were log-transformed and statistically analyzed using repeated measures analysis of covariance (RM-ANCOVA) to determine significant treatment effects, followed by post hoc Tukey’s test for multiple pairwise comparisons (all α = 0.05) using R software. Day 0 data were used only as covariates in the analyses because tumor measurements on that day were recorded before the first treatments were administered.

[4] = test system: LY0257/ABC; assay: DLBCL PDX model; type: in vivo, mouse; conditions: LY0257/ABC MyD88, 17 days, QD PO; TL-895 and ibrutinib 25 mg/kg, acalabrutinib 30 mg/kg
Procedure: as §3, §4, §5, §1, §6, §2, §7

[5] = test system: LY2345/ABC; assay: DLBCL PDX model; type: in vivo, mouse; conditions: 17 days, QD PO, TL-895 and ibrutinib 25 mg/kg, acalabrutinib 30 mg/kg
Procedure: as §3, §4, §5, §1, §6, §2, §7

[6] = test system: LY2318/ABC; assay: DLBCL PDX model; type: in vivo, mouse; conditions: 14 days, QD PO, TL-895 and ibrutinib 25 mg/kg, acalabrutinib 30 mg/kg
Procedure: as §3, §4, §5, §1, §6, §2, §7

[7] = test system: ST118B/ABC; assay: DLBCL PDX model; type: in vivo, mouse; conditions: ST118B/ABC MyD88, 19 days, QD PO; TL-895 and ibrutinib 25 mg/kg, acalabrutinib 30 mg/kg
Procedure: as §3, §4, §5, §1, §6, §2, §7

[8] = test system: ST23497/GCB; assay: DLBCL PDX model; type: in vivo, mouse; conditions: 17 days, QD PO, TL-895 and ibrutinib 25 mg/kg, acalabrutinib 30 mg/kg
Procedure: as §3, §4, §5, §1, §6, §2, §7

[9] = test system: ST2963/GCB; assay: DLBCL PDX model; type: in vivo, mouse; conditions: 13 days, QD PO, TL-895 and ibrutinib 25 mg/kg, acalabrutinib 30 mg/kg
Procedure: as §3, §4, §5, §1, §6, §2, §7

[10] = test system: ST1735B/GCB; assay: DLBCL PDX model; type: in vivo, mouse; conditions: 29 days, QD PO, TL-895 and ibrutinib 25 mg/kg, acalabrutinib 30 mg/kg
Procedure: as §3, §4, §5, §1, §6, §2, §7

[11] = test system: ST1361/GCB; assay: DLBCL PDX model; type: in vivo, mouse; conditions: 11 days, QD PO, TL-895 and ibrutinib 25 mg/kg, acalabrutinib 30 mg/kg
Procedure: as §3, §4, §5, §1, §6, §2, §7

[12] = test system: ST949/GCB; assay: DLBCL PDX model; type: in vivo, mouse; conditions: 14 days, QD PO, TL-895 and ibrutinib 25 mg/kg, acalabrutinib 30 mg/kg
Procedure: as §3, §4, §5, §1, §6, §2, §7

[13] = test system: LY12638/GCB; assay: DLBCL PDX model; type: in vivo, mouse; conditions: 25 days, QD PO, TL-895 and ibrutinib 25 mg/kg, acalabrutinib 30 mg/kg
Procedure: as §3, §4, §5, §1, §6, §2, §7

[14] = test system: LY2214/Unc; assay: DLBCL PDX model; type: in vivo, mouse; conditions: 17 days, QD PO, TL-895 and ibrutinib 25 mg/kg, acalabrutinib 30 mg/kg
Procedure: as §3, §4, §5, §1, §6, §2, §7

[15] = test system: ST2078/GCB; assay: DLBCL PDX model; type: in vivo, mouse; conditions: 20 days, QD PO, TL-895 and ibrutinib 25 mg/kg, acalabrutinib 30 mg/kg
Procedure: as §3, §4, §5, §1, §6, §2, §7

[16] = test system: ST359/GCB; assay: DLBCL PDX model; type: in vivo, mouse; conditions: 11 days, QD PO, TL-895 and ibrutinib 25 mg/kg, acalabrutinib 30 mg/kg
Procedure: as §3, §4, §5, §1, §6, §2, §7

[17] = test system: LY2298/ABC; assay: DLBCL PDX model; type: in vivo, mouse; conditions: LY2298/ABC MyD88, 16 days, QD PO; TL-895 and ibrutinib 25 mg/kg, acalabrutinib 30 mg/kg
Procedure: as §3, §4, §5, §1, §6, §2, §7

[18] = test system: LY13005/ABC; assay: DLBCL PDX model; type: in vivo, mouse; conditions: 14 days, QD PO, TL-895 and ibrutinib 25 mg/kg, acalabrutinib 30 mg/kg
Procedure: as §3, §4, §5, §1, §6, §2, §7

[19] = test system: LY2264/ABC; assay: DLBCL PDX model; type: in vivo, mouse; conditions: LY2264/ABC MyD88, 25 days, QD PO; TL-895 and ibrutinib 25 mg/kg, acalabrutinib 30 mg/kg
Procedure: as §3, §4, §5, §1, §6, §2, §7

[20] = test system: LY3604/ABC; assay: DLBCL PDX model; type: in vivo, mouse; conditions: 17 days, QD PO, TL-895 and ibrutinib 25 mg/kg, acalabrutinib 30 mg/kg
Procedure: as §3, §4, §5, §1, §6, §2, §7

[21] = test system: Daudi cells; assay: Rituximab-induced ADCC, NK cell-driven lysis (Calcein-AM release); type: cell-based, human; conditions: 3 µg/mL rituximab, primary NK cells, 4 h; TL-895 0.1–10 µM, ibrutinib and acalabrutinib 0.3–30 µM
Text: ADCC analysis was based on quantitation of Calcein-AM release by […] detection on a FLUOstar® Omega (BMG LABTECH).

Structure (SMILES) | Tumor response rate (models with P < 0.05 versus vehicle) [1] | %ΔT/ΔC [3] | %ΔT/ΔC [4] | %ΔT/ΔC [5] | %ΔT/ΔC [6] | %ΔT/ΔC [7] | %ΔT/ΔC [8] | %ΔT/ΔC [9] | %ΔT/ΔC [10] | %ΔT/ΔC [11] | %ΔT/ΔC [12] | %ΔT/ΔC [13] | %ΔT/ΔC [14] | %ΔT/ΔC [15] | %ΔT/ΔC [16] | %ΔT/ΔC [17] | %ΔT/ΔC [18] | %ΔT/ΔC [19] | %ΔT/ΔC [20] | Inhibition of the ADCC mechanism of rituximab [21] | also measured
CC#CC(=O)N1CCC[C@H]1c1nc(-c2ccc(C(=O)Nc3ccccn3)cc2)c2c(N)nccn12 [Acalabrutinib] | 24% | 126% | 54^M % | 108% | 102% | 104% | 100% | 116% | 80% | 74^V % | 72% | 262% | 63% | 115^I % | 54% | 27^V,I % | 64^V % | 48^V % | 36^V % | neither TL-895 (0.1–10 µM) nor acalabrutinib (0.3–30 µM) inhibited the ADCC mechanism of rituximab at the lower, more clinically relevant, concentrations | Combined overall response rate (ORR) ([2]; patients with either ABC- or GCB-DLBCL): 24%
C=CC(=O)N1CCC[C@@H](n2nc(-c3ccc(Oc4ccccc4)cc3)c3c(N)ncnc32)C1 [Ibrutinib] | 10% | 171% | 88^M % | 118% | 86% | 90% | 95% | 81% | 75% | 65^V % | 86% | 121% | 77% | 75^A % | 62% | 69^A % | 71^M % | 74^M % | 38^V % | ADCC was inhibited by ibrutinib (0.3–30 µM) in a concentration-dependent manner | ORR ([2]; combined with R-ICE, patients with GCB-DLBCL): 90%; Reported response rate ([2]; patients with ABC-DLBCL): 37%; Reported response rate ([2]; patients with GCB-DLBLC): 5%; ORR ([2]; patients with wild type CD79B ABC-DLBCL): 31%
C=CC(=O)N1CCC(F)(CNc2ncnc(N)c2-c2ccc(Oc3ccccc3)cc2)CC1 [TL-895] | 24% | 115% | 45^V,I,A % | 120% | 104% | 68% | 101% | 106% | 101% | 60^V % | 83% | 84% | 93% | 114% | 71% | 38% | 43^V,I % | 37^V,I % | 32^V % | neither TL-895 (0.1–10 µM) nor acalabrutinib (0.3–30 µM) inhibited the ADCC mechanism of rituximab at the lower, more clinically relevant, concentrations | Complete responses in patients with DLBCL ([2]; preliminary evidence): 1
